Test results as given in PubChem BioAssay (NCI).
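Five compound concentrations were applied to cells in 96-well plates for 48 hours; endpoints were derived by simple linear interpolation of the resulting dose-response curve. GI50 = concentration required for 50% inhibition of growth. TGI is the concentration that stops growth completely.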

System: MDA-MB-468 breast
Experiment: NCI anticancer screen, dose series, 48 h

Row | SMILES | GI50 | TGI
1 | Cc1ccc(NS(=O)(=O)c2ccc(-c3cnc(C4CC4)o3)cc2)cc1 | 1170 nM | 5830 nM
2 | COc1cc(O)c2c(c1)[C@H]1O[C@@H]1C[C@H](O)[C@H](O)C(=O)/C=C\C[C@H](C)OC2=O | 1100 nM | 5640 nM
3 | O=C(c1ccccc1)c1ccc(-c2ccc(O)cc2)cc1 | 1940 nM | 8860 nM
4 | Cn1ncc2c(Nc3ccc(Br)cc3)nc(Nc3ccc(Br)cc3)nc21 | 2110 nM | 7780 nM
5 | COC[C@H]1C(=O)NCC(=O)N2NCCC[C@H]2C(=O)N(O)[C@H](C)C(=O)O[C@@H](C(C)C)[C@H](NC(=O)[C@](C)(O)[C@]2(O)CC[C@@H](CC(C)C)[C@H](C)O2)C(=O)N2NCCC[C@@H]2C(=O)N1O | 14 nM | 31.1 nM
6 | Cc1ccc(S(=O)(=O)N(C)C)cc1[N+](=O)[O-] | > 100000 nM | > 100000 nM
7 | COc1cnc2c(c1)C(=O)c1c-2n(CCCn2ccnc2)c(=O)c2cc(OC)c(OC)cc12 | 51.1 nM | 358 nM
8 | Cc1c(Cl)cccc1NC(=O)CC1Sc2ccccc2NC1=O (configuration not stated) | 12800 nM | 37400 nM
9 | CCCOC(=O)N[C@H]1CCc2c(Br)c(OC)c(OC)c(OC)c2-c2ccc(SC)c(=O)cc21 | < 10 nM | 18100 nM
10 | Cc1nc2sc(C(=O)Nc3cccc4ccccc34)c(N)c2cc1C(C)O (configuration not stated) | 126 nM | 416 nM
11 | CCC(=O)Sc1ccccc1C(=O)Nc1ccc(Cl)cc1 | 9970 nM | > 100000 nM
12 | Brc1c[n+](Cc2ccc3ccccc3c2)cn1Cc1ccc2ccccc2c1 | 624 nM | 2570 nM
13 | Cc1cc(N(CCCl)CCCl)ccc1C=Nc1cccnc1 | 71.2 nM | 521 nM
14 | O=C1Nc2ccc(F)c3c(OCCO)cc(-c4ccc[nH]4)c1c23 | 528 nM | 1830 nM
15 | COc1ccc(-c2cc3c4c(nc5ccccc5c4c2)CC(c2cc(OC)c(OC)c(OC)c2)O3)cc1 (configuration not stated) | 2630 nM | 10500 nM
16 | FC(F)(F)c1cc(Nc2ccc3c(OCCCN4CCOCC4)cccc3n2)ccc1Cl | 2170 nM | 5920 nM

Row | SMILES | GI50 | TGI
17 | O=S(=O)(Nc1ccc(-c2nc(-c3cccc(OCCN4CCOCC4)c3)c(-c3ccnc(Br)c3)[nH]2)cc1)c1ccccc1 | 1850 nM | 5240 nM
18 | O=C1C=C(SCCO)C(=O)c2ccccc21 | 1510 nM | 3460 nM
19 | CO/N=C(\c1ccccc1)c1cnn(-c2ccccc2)c1N | > 25000 nM | > 25000 nM
20 | O=C(NNc1nc2cc(F)ccc2n2c(CN3CCOCC3)ccc12)c1ccccc1 | 193 nM | 894 nM
21 | COc1ccc(OC)c(/C=C/[N+](=O)[O-])c1 | 1220 nM | 2680 nM
22 | COCCNCC(O)Cn1c2ccc(Cl)cc2c2cc(Cl)ccc21 (configuration not stated) | 1780 nM | 3850 nM
23 | ClCCN(CCCl)Cc1ccc(Nc2ccnc3cc(Cl)ccc23)cc1 | 702 nM | 2990 nM
24 | COC1=CC(c2ccc[nH]2)=N/C1=C\c1[nH]c(C)c(C(=O)CCC(=O)Oc2ccc3c(c2)CCC2C3CC[C@]3(C)C(=O)CC[C@@H]23)c1C (some centres not stated) | 16900 nM | > 100000 nM
25 | COc1cc(-c2c3c(cn2S(=O)(=O)c2ccccc2)-c2nc(N)sc2CC3)cc(OC)c1OC | 426 nM | 22200 nM
26 | OCC1SC(n2cnc3cncnc32)C(O)C1O (configuration not stated) | > 100000 nM | > 100000 nM
27 | CCOC(=O)C1(Cc2ccc(C)cc2)Cc2ccc(C)cc2C1=O (configuration not stated) | 10400 nM | 37400 nM
28 | C=C1C(=O)O[C@H]2[C@H]1CC/C(COC(=O)OCCCCCOC(=O)OC/C1=C/CC[C@@]3(C)O[C@H]3[C@H]3OC(=O)C(=C)[C@@H]3CC1)=C\CC[C@@]1(C)O[C@@H]21 | 186 nM | 458 nM
29 | CCOc1ccc(NC(=O)Nc2cc(C(C)C)ccc2C)cc1 | 5670 nM | 51800 nM
30 | COc1ccc2c(c1)Oc1nc(N)c(C#N)c(N)c1C2Sc1ccc(SC)cc1 (configuration not stated) | 1750 nM | 3590 nM
31 | Cn1ncc2cc(-c3cnc(N)c(Cl)c3N3CCC4(CCNC4=O)CC3)ccc21 | 16400 nM | 63100 nM
